The compounds below were run against T1, ERα (Homo sapiens, UniProt P03372) (assay: ERE luciferase reporter gene assay in T47D-KBluc cells (target engagement)). Settings: 10% FBS, 24 hours, Table 1 cereblon centric PROTACs, read-out: ER-α Luciferase IC50.
T1 sequence (P03372 1-595): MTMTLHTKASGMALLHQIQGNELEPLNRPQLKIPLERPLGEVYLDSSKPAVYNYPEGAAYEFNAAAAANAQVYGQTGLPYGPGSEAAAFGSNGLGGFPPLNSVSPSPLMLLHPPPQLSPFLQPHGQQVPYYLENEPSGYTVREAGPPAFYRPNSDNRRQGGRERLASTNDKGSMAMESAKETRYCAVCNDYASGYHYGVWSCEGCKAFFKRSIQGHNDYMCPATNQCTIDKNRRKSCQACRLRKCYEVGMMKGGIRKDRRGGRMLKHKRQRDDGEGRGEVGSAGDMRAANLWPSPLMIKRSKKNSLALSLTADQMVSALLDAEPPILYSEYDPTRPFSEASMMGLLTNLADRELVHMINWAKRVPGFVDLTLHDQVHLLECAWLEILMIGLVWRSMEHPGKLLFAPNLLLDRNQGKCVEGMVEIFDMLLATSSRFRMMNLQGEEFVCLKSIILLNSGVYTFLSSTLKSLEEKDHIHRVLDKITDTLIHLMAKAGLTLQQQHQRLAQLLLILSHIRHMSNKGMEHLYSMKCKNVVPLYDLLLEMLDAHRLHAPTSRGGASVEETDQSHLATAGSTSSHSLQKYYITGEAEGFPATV
Format: cell-based
Design: T47D human breast cancer cells stably transfected with estrogen responsive element/promoter/luciferase reporter gene; host or cells: T47D-KBluc cells
Experimental: Chimeric molecules were assessed for target engagement in T47D cells using the commercial kit of ERE luciferase reporter gene assay. In the assay, 10% FBS was included and estrogen level was measured to be 10 pM.
ERE Luciferase Assay for Compounds in Table 1-3.
T47D-KBluc cells (ATCC #CRL_2865, T47D human breast cancer cells stably transfected with estrogen responsive element/promoter/luciferase reporter gene) were seeded into 96-well white opaque plates in RPMI growth medium supplemented with 10% fetal bovine serum and allowed to adhere overnight in a 37° C. humidified incubator. The following day, cells were treated with PROTACs in a 12-point concentration curve (top final concentration of 300 nM with subsequent concentrations being 3-fold less with 2 pM being the lowest concentration in the assay). Each PROTAC was tested independently in two experiments on 96-well plates. After 24 hours, media was removed and lysis buffer was added to the wells. Following lysis, Bright-Glo™ Luciferase Assay Substrate (Prornega, Madison Wis.) was added and the luciferase activity was measured using a Cytation 3 plate reader (TioTek™, Winooski, Vt.). Each compound was assayed in duplicates and the activity was calculated as IC50 using GraphPad Prism software (San Diego, Calif.).

| IC50 [nM] | Structure (SMILES) |
| --- | --- |
| 1.3 | O=C1CCC(N2Cc3cc(CCCOC4CCN(CCOc5ccc(Oc6c(-c7ccc(Br)cc7)sc7cc(O)ccc67)cc5)CC4)ccc3C2=O)C(=O)N1 (stereo not shown) [Compound 73] |
| 6.6 | O=C1CCC(N2C(=O)c3ccc(NCCOCCOc4ccc(Oc5c(-c6ccc(Br)cc6)sc6cc(O)ccc56)cc4)cc3C2=O)C(=O)N1 (stereo not shown) [Compound 75] |
| 17 | O=C1CCC(N2C(=O)c3ccc(OCCCOCCOc4ccc(Oc5c(-c6ccc(Br)cc6)sc6cc(O)ccc56)cc4)cc3C2=O)C(=O)N1 (stereo not shown) [Compound 76] |
| 34.1 | O=C1CCC(N2C(=O)c3ccc(OCCCOCCCOc4ccc(Oc5c(-c6ccc(Br)cc6)sc6cc(O)ccc56)cc4)cc3C2=O)C(=O)N1 (stereo not shown) [Compound 77] |
| 27.8 | O=C1CCC(N2C(=O)c3ccc(OCCCOCCOCCOc4ccc(Oc5c(-c6ccc(Br)cc6)sc6cc(O)ccc56)cc4)cc3C2=O)C(=O)N1 (stereo not shown) [Compound 79] |
| 37.4 | O=C1CCC(N2C(=O)c3ccc(OCCCOCCCOCCCOc4ccc(Oc5c(-c6ccc(Br)cc6)sc6cc(O)ccc56)cc4)cc3C2=O)C(=O)N1 (stereo not shown) [Compound 80] |
| 8.4 | O=C1CCC(N2C(=O)c3ccc(NCCCOCCOc4ccc(Oc5c(-c6ccc(Br)cc6)sc6cc(O)ccc56)cc4)cc3C2=O)C(=O)N1 (stereo not shown) [Compound 81] |
| 32.2 | O=C1CCC(N2C(=O)c3ccc(NCCCOCCCOc4ccc(Oc5c(-c6ccc(Br)cc6)sc6cc(O)ccc56)cc4)cc3C2=O)C(=O)N1 (stereo not shown) [Compound 82] |
| 44.9 | O=C1CCC(N2C(=O)c3ccc(NCCCOCCOCCOc4ccc(Oc5c(-c6ccc(Br)cc6)sc6cc(O)ccc56)cc4)cc3C2=O)C(=O)N1 (stereo not shown) [Compound 83] |
| 30.9 | O=C1CCC(N2C(=O)c3ccc(NCCCOCCCOCCCOc4ccc(Oc5c(-c6ccc(Br)cc6)sc6cc(O)ccc56)cc4)cc3C2=O)C(=O)N1 (stereo not shown) [Compound 84] |
| 6 | O=C1CCC(N2Cc3cc(NCCCOCCOc4ccc(Oc5c(-c6ccc(Br)cc6)sc6cc(O)ccc56)cc4)ccc3C2=O)C(=O)N1 (stereo not shown) [Compound 85] |
| 11 | O=C1CCC(N2Cc3cc(NCCOCCOCCOc4ccc(Oc5c(-c6ccc(Br)cc6)sc6cc(O)ccc56)cc4)ccc3C2=O)C(=O)N1 (stereo not shown) [Compound 86] |
| 21.5 | O=C1CCC(N2C(=O)c3ccc(OCCCOCCCOCCOc4ccc(Oc5c(-c6ccc(Br)cc6)sc6cc(O)ccc56)cc4)cc3C2=O)C(=O)N1 (stereo not shown) [Compound 87] |

Same assay, conditions: 10% FBS, 24 hours, Table 2 VHL centric PROTACs, read-out: IC50

| IC50 [nM] | Structure (SMILES) |
| --- | --- |
| 15.8 | Cc1ncsc1-c1ccc([C@H](C)NC(=O)[C@@H]2C[C@@H](O)CN2C(=O)[C@@H](NC(=O)COCCCOCCCOc2ccc(Oc3c(-c4ccc(F)cc4)sc4cc(O)ccc34)cc2)C(C)(C)C)cc1 [Compound 112, (2S,4R)-1-((S)-2-(2-(3-(3-(4-(2-(4-fluorophenyl)-6-hydroxybenzo[b]thiophen-3-yloxy)phenoxy)propoxy)propoxy)acetamido)-3,3-dimethylbutanoyl)-4-hydroxy-N—((S)-1-(4-(4-methylthiazol-5-yl)phenyl)ethyl)pyrrolidine-2-carboxamide] |
| 23.7 | Cc1ncsc1-c1ccc([C@H](C)NC(=O)[C@@H]2C[C@@H](O)CN2C(=O)[C@@H](NC(=O)COCCOCCCOc2ccc(Oc3c(-c4ccc(F)cc4)sc4cc(O)ccc34)cc2)C(C)(C)C)cc1 [Compound 113, (2S,4R)-1-((S)-2-(2-(2-(3-(4-(2-(4-fluorophenyl)-6-hydroxybenzo[b]thiophen-3-yloxy)phenoxy)propoxy)ethoxy)acetamido)-3,3-dimethylbutanoyl)-4-hydroxy-N—((S)-1-(4-(4-methylthiazol-5-yl)phenyl)ethyl)pyrrolidine-2-carboxamide] |
| 22 | Cc1ncsc1-c1ccc(CNC(=O)[C@@H]2C[C@@H](O)CN2C(=O)[C@@H](NC(=O)CCCC(=O)N2CCN(CCOc3ccc(Oc4c(-c5ccc(F)cc5)sc5cc(O)ccc45)cc3)CC2)C(C)(C)C)cc1 [Compound 114] |
| > 100 | Cc1ncsc1-c1ccc(CNC(=O)[C@@H]2C[C@@H](O)CN2C(=O)[C@@H](NC(=O)CCC(=O)N2CC3CN(CCOc4ccc(Oc5c(-c6ccc(F)cc6)sc6cc(O)ccc56)cc4)CC3C2)C(C)(C)C)cc1 (stereo partly shown) [Compound 115] |
| 3 | Cc1ncsc1-c1ccc(CNC(=O)[C@@H]2C[C@@H](O)CN2C(=O)[C@@H](NC(=O)COCCO[C@@H]2CCN(CCOc3ccc(Oc4c(-c5ccc(F)cc5)sc5cc(O)ccc45)cc3)C2)C(C)(C)C)cc1 [Compound 116] |
| 4.1 | Cc1ncoc1-c1ccc([C@H](C)NC(=O)[C@@H]2C[C@@H](O)CN2C(=O)[C@@H](NC(=O)COCCOCCOCCOc2ccc(Oc3c(-c4ccc(Cl)cc4)sc4cc(O)ccc34)cc2)C(C)(C)C)cc1 [Compound 120] |
| > 100 | Cc1ncsc1-c1ccc(CNC(=O)[C@@H]2C[C@@H](O)CN2C(=O)[C@@H](NC(=O)CCCN2CC3CN(CCOc4ccc(Oc5c(-c6ccc(F)cc6)sc6cc(O)ccc56)cc4)CC3C2)C(C)(C)C)cc1 (stereo partly shown) [Compound 122] |
| 5.5 | Cc1ncsc1-c1ccc(CNC(=O)[C@@H]2C[C@@H](O)CN2C(=O)[C@@H](NC(=O)COCCO[C@H]2CCN(CCOc3ccc(Oc4c(-c5ccc(F)cc5)sc5cc(O)ccc45)cc3)C2)C(C)(C)C)cc1 [Compound 123] |
| 2.2 | Cc1ncsc1-c1ccc(CNC(=O)[C@@H]2C[C@@H](O)CN2C(=O)[C@@H](NC(=O)CCCC(=O)N2CCN(CCOc3ccc(Oc4c(-c5ccc(F)cc5)sc5cc(O)ccc45)cc3)[C@@H](C)C2)C(C)(C)C)cc1 [Compound 124] |
| 1.6 | Cc1ncsc1-c1ccc(CNC(=O)[C@@H]2C[C@@H](O)CN2C(=O)[C@@H](NC(=O)CCCC(=O)N2CCN(CCOc3ccc(Oc4c(-c5ccc(F)cc5)sc5cc(O)ccc45)cc3)[C@H](C)C2)C(C)(C)C)cc1 [Compound 125] |
| 0.4 | Cc1ncsc1-c1ccc(CNC(=O)[C@@H]2C[C@@H](O)CN2C(=O)[C@@H](NC(=O)CCCOCC2CCN(CCOc3ccc(Oc4c(-c5ccc(F)cc5)sc5cc(O)ccc45)cc3)C2)C(C)(C)C)cc1 (stereo partly shown) [Compound 131] |
| 1.3 | C[C@H](NC(=O)[C@@H]1C[C@@H](O)CN1C(=O)[C@@H](NC(=O)COCCOCCOCCOc1ccc(Oc2c(-c3ccc(F)cc3)sc3cc(O)ccc23)cc1)C(C)(C)C)c1ccc(C#N)cc1 [Compound 132] |
| 1.5 | CC(C)(C)[C@H](NC(=O)COCCOCCOCCOc1ccc(Oc2c(-c3ccc(F)cc3)sc3cc(O)ccc23)cc1)C(=O)N1C[C@H](O)C[C@H]1C(=O)NCc1ccc(C#N)cc1 [Compound 136] |
| 87 | Cc1ncsc1-c1ccc(CNC(=O)[C@@H]2C[C@@H](O)CN2C(=O)[C@@H](NC(=O)CCCOC2CCN(CCOc3ccc(Oc4c(-c5ccc(F)cc5)sc5cc(O)ccc45)cc3)CC2)C(C)(C)C)cc1 [Compound 137] |
| 32 | CC(C)(C)[C@H](NC(=O)COCCOCCN1CCC(c2ccc(Oc3c(-c4ccc(F)cc4)sc4cc(O)ccc34)cc2)CC1)C(=O)N1C[C@H](O)C[C@H]1C(=O)NCc1ccc(C#N)cc1 [Compound 143] |
| > 100 | CC(C)(C)[C@H](NC(=O)COCCOCCN1CCC(c2ccc(Oc3c(-c4ccc(F)cc4)sc4cc(O)ccc34)cc2)CC1)C(=O)N1C[C@H](O)C[C@H]1C(=O)NCc1ccc(Cl)cc1 [Compound 144] |
| 97 | CC(C)(C)[C@H](NC(=O)Cc1ccc(-c2ccn(CCOc3ccc(Oc4c(-c5ccc(F)cc5)sc5cc(O)ccc45)cc3)n2)cc1)C(=O)N1C[C@H](O)C[C@H]1C(=O)NCc1ccc(C#N)cc1 [Compound 145] |
| > 100 | CC(C)(C)[C@H](NC(=O)Cc1ccc(-c2ccn(CCOc3ccc(Oc4c(-c5ccc(F)cc5)sc5cc(O)ccc45)cc3)n2)cc1)C(=O)N1C[C@H](O)C[C@H]1C(=O)NCc1ccc(Cl)cc1 [Compound 146] |
| > 100 | C[C@H](NC(=O)[C@@H]1C[C@@H](O)CN1C(=O)[C@@H](NC(=O)COCCOCCN1CCC(c2ccc(Oc3c(-c4ccc(F)cc4)sc4cc(O)ccc34)cc2)CC1)C(C)(C)C)c1ccc(Cl)cc1 [Compound 148] |
| > 100 | Cc1ncsc1-c1ccc(CNC(=O)[C@H]2C[C@H](O)CN2C(=O)[C@@H](NC(=O)COCCN2CCN(CCOc3ccc(Oc4c(-c5ccc(Br)cc5)sc5cc(O)ccc45)cc3)CC2)C(C)(C)C)cc1 [Compound 152] |
| > 100 | COc1ccc2c(Oc3ccc(OCCN4CCN(CCOCC(=O)N[C@H](C(=O)N5C[C@H](O)C[C@H]5C(=O)NCc5ccc(-c6scnc6C)cc5)C(C)(C)C)CC4)cc3)c(-c3ccc(Br)cc3)sc2c1 [Compound 154] |

Source: patent US11384063B2, “Modulators of estrogen receptor proteolysis and associated methods of use” (Arvinas Operations, Inc., priority 2017, dated 2022)
